The results in this text go back to patent US20260027066A1, “NANOSCALE MATRIMERES” (THE BOARD OF TRUSTEES OF THE UNIVERSITY OF ILLINOIS, priority 2022, published 2026).

Assay [1] has as its system FN^+ matrimeres secreted from MSCs. The assay is described as follows: Effects of pharmacological modulators on FN+ matrimere secretion from MSCs. The format is cell-based, mouse. Particulars: 24 hours in culture with drug vs DMSO control. As to the method: FIGS. 6A-6C show the effects of pharmacological modulators on FN^+ matrimere secretion. (FIG. 6A) Overview of the potential biogenesis pathway for FN^+ matrimeres, known regulators, and their pharmacological modulators. (FIG. 6B) Total number of nanostructures per MSC after 24 hours in culture with drugs or DMSO control. (FIG. 6C) Percent of FN^+ particles in MSC-secreted nanostructures. (FIG. 6D) Total number of FN^+ particles per cell. *p<0.05. n=3 experiments. p-values from one-way ANOVA followed by Tukey's post-test. All data are shown as mean±s.d. BMS-P5 (CAS No. 1550371-22-6); Bafilomycin-A1 (BafA1, CAS No. 88899-55-2); curcumin analog C1 (CA-C1, CAS No. 39777-61-2); ML-SA5 (CAS No. 2418670-70-7).
For excess DNA to be released from the nucleus, arginine in histone undergoes modification from positive to neutral charge via citrullination, which is mediated by peptidylarginine deiminase (PAD) (FIG. 6A). […] Most cells (>90%) remained viable after drug treatment. Thus, autophagy and lysosome are potential mediators of FN^+ matrimere biogenesis.

For assay [2], the system named is human umbilical vein endothelial cell (HUVEC) monolayer. The assay is described as follows: Transendothelial electrical resistance (TEER) assay of endothelial monolayer after LPS treatment. The format is cell-based. Particulars: cilengitide 200 nM. As to the method: (FIG. 3A) TEER kinetics of the human umbilical vein endothelial cell (HUVEC) monolayer showing the rescue of LPS (1 μM)—compromised TEER by the CD63-depleted fraction of MSC-secreted nanostructures. (FIG. 3B) Changes in TEER from 6.5 hours to 24 hours after washing out LPS followed by treatment. ****p<0.0001. n=3 experiments. p-values were derived from one-way ANOVA followed by Dunnett's T3 post-test. All data are shown as mean±s.d.
FIG. 8A-8B show the effects of reconstituted FN-DNA matrimeres on the recovery of TEER after 6 hours LPS (1 μM) treatment in vitro. (FIG. 8A) TEER kinetics. (FIG. 8B) Percentage of TEER recovery. n=3 experiments.
The effect of depleting different mouse MSC-secreted nanostructure subpopulations on their ability to reverse hyperpermeability of the endothelial cell monolayer after LPS treatment in vitro was assessed by a transendothelial electrical resistance (TEER) assay. TEER was decreased with LPS over 6 hours, while TEER was only partially rescued after washing out LPS in 24 hours. […] Competitive inhibition of RGD-binding integrins by cilengitide (cyclic RGD, 200 nM) impaired the ability of CD63-depleted fraction to restore TEER (FIG. 3B). […]
It was subsequently determined whether in vitro reconstituted FN-DNA particles could restore permeability of the endothelial cell monolayer after LPS treatment. […]

Regarding `COc1cc(C(=O)N2C[C@H](N)CC[C@@H]2C)cc2nc(-c3cc4cccnc4n3CC3CC3)n(C)c12` [BMS-P5], the “FN^+ matrimeres secreted from MSCs” value in assay [1] is “decreased”.
Take `CC(C)[C@H]1C(=O)N[C@@H](CCCN=C(N)N)C(=O)NCC(=O)N[C@@H](CC(=O)O)C(=O)N[C@H](Cc2ccccc2)C(=O)N1C` [cilengitide]: the “effect on ability of reconstituted FN-DNA particles to restore TEER” value in assay [2] is “partially impaired”. The “effect on ability of CD63-depleted fraction to restore TEER” value in assay [2] (competitive inhibition of RGD-binding integrins) is given as “impaired”.
As for `CO/C1=C\C(C)=C\[C@@H](C)[C@@H](O)[C@@H](C)C/C(C)=C/C=C/[C@H](OC)[C@@H]([C@@H](C)[C@@H](O)[C@H](C)[C@@]2(O)C[C@@H](O)[C@H](C)[C@@H](C(C)C)O2)OC1=O` [bafilomycin-A1], the “FN^+ matrimeres secreted from MSCs” value in assay [1] is “decreased”.
On to `COc1ccccc1/C=C/C(=O)/C=C/c1ccccc1OC` [curcumin analog C1, (1E,4E)-1,5-bis(2-methoxyphenyl)-1,4-pentadien-3-one], for which, in assay [1], the “FN^+ particle number per cell” value is recorded as “significantly increased”.
`CN(C)S(=O)(=O)c1ccc(S(=O)(=O)Nc2cccc(Cl)c2N2CCCCC2)cc1` [ML-SA5, N′-[3-Chloro-2-(1-piperidinyl)phenyl]-N,N-dimethyl-1,4-benzenedisulfonamide]: in assay [1], the “FN^+ particle number per cell” value is listed as “significantly increased”.
